Patent US5795612A, “Aspartyldipeptideamine derivatives and sweetner” (Ajinomoto Co., Inc., priority 1995, dated 1998)
Residues, ends and D or L forms follow the SMILES beside them.

Tests used:
[1] = Sensory evaluation of sweetness potency relative to sugar; details: for Sweetnes Potency: Table 1, compared with 4% aqueous sucrose solution; for Sweetness Potency (sugar=1): sensory evaluation
[2] = Stability (half-life) heated to 70° C. in a phosphate buffer (pH=3); type: physicochemical

half-life [2]	Compound	Sweetnes Potency [1]	Sweetness Potency (sugar=1) [1]
	COCC(NC(=O)[C@H](NC(=O)[C@@H](N)CC(=O)O)C(C)C)c1ccco1 (mixture of isomers) [Example 9, α-L-aspartyl-D-valine (RS)-α-furyl-β-methoxyethylamide]	200	Approximately 200
	CC[C@H](NC(=O)[C@@H](CC)NC(=O)[C@@H](N)CC(=O)O)c1ccc(O)cc1 [Example 1, α-L-aspartyl-D-α-aminobutyric acid (S)-α-ethyl-p-hydroxybenzylamide]	2000	2000
	CC[C@@H](NC(=O)[C@@H](N)CC(=O)O)C(=O)N[C@@H](COC)c1ccc(O)cc1 [Example 2, α-L-aspartyl-D-α-aminobutyric acid (R)-α-methoxymethyl-p-hydroxybenzylamide]	1500	1500
	CC[C@H](NC(=O)[C@H](NC(=O)[C@@H](N)CC(=O)O)C(C)C)c1ccc(O)cc1 [Example 3, α-L-aspartyl-D-valine (S)-α-ethyl-p-hydroxybenzylamide]	1500	1500
	COC[C@H](NC(=O)[C@H](NC(=O)[C@@H](N)CC(=O)O)C(C)C)c1ccc(O)cc1 [Example 4, α-L-aspartyl-D-valine (R)-α-methoxymethyl-p-hydroxybenzylamide]	1250	1250
	CC(C)[C@@H](NC(=O)[C@@H](N)CC(=O)O)C(=O)N[C@@H](C)c1ccc(O)cc1 [Example 5, α-L-aspartyl-D-valine (S)-α-methyl-p-hydroxybenzylamide]	1000	1000
	CC[C@H](NC(=O)[C@H](NC(=O)[C@@H](N)CC(=O)O)C(C)C)c1ccc(Cl)cc1 [Example 6, α-L-aspartyl-D-valine (S)-α-ethyl-p-chlorobenzylamide]	1250	1250
	CC[C@H](NC(=O)[C@H](NC(=O)[C@@H](N)CC(=O)O)C(C)C)c1ccncc1 [Example 7, α-L-aspartyl-D-valine (S)-α-4-pyridylpropylamide]	300	Approximately 300
	COC[C@H](NC(=O)[C@H](NC(=O)[C@@H](N)CC(=O)O)C(C)C)c1ccc(OC)cc1 [Example 8, α-L-aspartyl-D-valine (R)-α-methoxymethyl-p-methoxybenzylamide]	250	Approximately 250
approximately 1 days	COC(=O)[C@H](Cc1ccccc1)NC(=O)[C@@H](N)CC(=O)O [aspartame] (H-Asp-Phe-OMe)		
